In paper PMC7747594, “Protease-activated receptor-2 ligands reveal orthosteric and allosteric mechanisms of receptor inhibition” (Communications Biology, 2020):
Values joined by “and” are separate entries in the source; they are usually repeats but may differ in a detail not shown here. Equal values may be shown once.

Key:
Type in all cases: in vivo
[1] = tested on: macrophages; assay: Immunohistochemistry, ED1-positive macrophages in rat paw; conditions: 30 min after agonist administration
Description: Rat paw tissues were collected, fixed in 10% neutral-buffered formalin (Sigma-Aldrich) for 2 h at 4 °C, transferred into falcon tubes containing 25% sucrose in PBS and left overnight at 4 °C. Tissues were then embedded with Optimal Cutting Temperature compound (OCT, Sakura Finetek, USA) and stored at −80 °C before making cryo-sections for histological analysis. Frozen sections (5 µm) were made using a cryostat-microtome (Leica Biosystems, Germany). For mast cell staining, slides were briefly washed with distilled water before staining with 0.1% toluidine blue (Sigma-Aldrich, pH 2.5) for 3 min. Slides were then dehydrated and mounted in DPX mountant (Sigma-Aldrich, USA). For immunohistochemistry, slides were briefly rinsed with PBS to remove OCT. Except for tryptase staining, antigen retrieval was performed by incubating slides in citrate buffer (0.01 M, pH 6) at 95 °C for 20 min. They were then cooled down briefly and incubated with blocking medium (PBS, 0.1% Triton X-100, 10% horse serum) for 1 h at room temperature in a humidity chamber. Samples were incubated with primary antibody medium (PBS, 0.1% Triton X-100, 4% horse serum; 1:100 primary antibody including – histamine, neutrophil elastase or ED1 antibodies) overnight at 4 °C. […] Tryptase-, neutrophil elastase- and ED1-positive cells were quantified using FIJI/ImageJ 1.42q software, USA.

[2] = tested on: mast cells; assay: Mast cell staining (toluidine blue), activated/degranulated mast cells in rat paw; design: Active mast cells (%): concentration or dose not given beside the values; conditions: for Active mast cells (%): 2f-induced rat paw oedema, individual animals (Figure 5b); for percentage activated/degranulated mast cells in paw induced by 2f-LIGRLO-NH2: pre-treatment, 30 min
Description: (§1) Tissues were then embedded with Optimal Cutting Temperature compound (OCT, Sakura Finetek, USA) and stored at −80 °C before making cryo-sections for histological analysis. Frozen sections (5 µm) were made using a cryostat-microtome (Leica Biosystems, Germany). […] Slides were then dehydrated and mounted in DPX mountant (Sigma-Aldrich, USA). For immunohistochemistry, slides were briefly rinsed with PBS to remove OCT. Except for tryptase staining, antigen retrieval was performed by incubating slides in citrate buffer (0.01 M, pH 6) at 95 °C for 20 min. They were then cooled down briefly and incubated with blocking medium (PBS, 0.1% Triton X-100, 10% horse serum) for 1 h at room temperature in a humidity chamber. Samples were incubated with primary antibody medium (PBS, 0.1% Triton X-100, 4% horse serum; 1:100 primary antibody including – histamine, neutrophil elastase or ED1 antibodies) overnight at 4 °C. The next day, samples were washed with PBS and incubated with the secondary antibody medium (PBS, 0.1% Triton X-100, 4% horse serum, detection antibody 1:200) for 2 h at room temperature. For tryptase staining, slides were incubated with primary antibody medium (as above with tryptase antibody at 1:100 dilution) for 4 h, then the secondary antibody medium for 2 h. Finally, slides were dried, counterstained with DAPI (Invitrogen, Australia), and sealed with clear nail polish. Primary antibodies for tryptase (AA1, ab2378, Abcam, Australia), histamine (H7403, Sigma-Aldrich, USA), neutrophil elastase (ab21595, Abcam, Australia) and ED1 (ab31630, Abcam, Australia) were purchased from commercial sources. Secondary detection antibody was purchased from Abcam, Australia.

[3] = target: T1, PAR2 (Rattus norvegicus, UniProt Q63645); assay: PAR2 agonist (2f-LIGRLO-NH2)-induced rat paw oedema, paw swelling; conditions: for reduction of paw swelling: Wistar rats; for % swelling: 2f-induced rat paw oedema, individual animals (Figure 5a); for paw swelling: AZ3451 10 mg kg^−1 s.c. 30 min before, AZ8838 10 mg kg^−1 p.o. 2 h before 2f-LIGRLO-NH2; for anti-inflammatory activity in vivo after oral delivery / anti-inflammatory activity in vivo after subcutaneous injection: rat paw oedema
T1 construct: from tissue; host or cells: hind paw of male Wistar rats, in vivo
T1 sequence (Q63645 26-397): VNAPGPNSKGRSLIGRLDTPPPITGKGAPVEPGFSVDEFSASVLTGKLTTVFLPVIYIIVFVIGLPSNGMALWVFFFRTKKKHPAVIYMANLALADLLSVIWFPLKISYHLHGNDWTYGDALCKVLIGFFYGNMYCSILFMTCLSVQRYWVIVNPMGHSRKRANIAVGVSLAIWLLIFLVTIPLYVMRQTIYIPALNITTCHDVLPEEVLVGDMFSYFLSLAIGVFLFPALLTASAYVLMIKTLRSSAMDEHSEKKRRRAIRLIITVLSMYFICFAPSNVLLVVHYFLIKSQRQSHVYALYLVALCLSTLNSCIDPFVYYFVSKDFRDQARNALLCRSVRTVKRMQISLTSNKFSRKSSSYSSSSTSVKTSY
Description: Following Australian ethical standards, animals were air transported to the Institute for Bioengineering and Nanotechnology (University of Queensland, Australia). Animals were housed at room temperature and kept in 12 h light/dark cycles, with standard chow and water provided ad libitum, for at least a 48 h acclimatisation period before experiments. […] Saline only was given to sham paws. […] Control animals received either DMSO s.c. or 20% DMSO/80% olive oil via oral gavage. […] At the 30 min time point, a portion of animals was euthanised by CO2 inhalation and their paws collected for further analyses. All in vivo experimental procedures and animal handling were conducted with approval from the Animal Ethics Committee at the University of Queensland which follows NHMRC and ARRIVE guidelines. After experimentation, animals are humanely euthanized by CO2 inhalation as stipulated by the ethical agreements.
Experimental results were expressed as mean ± s.e.m. Graphs were plotted and data analysed using GraphPad Prism7. Statistical differences were assessed using Student’s t-tests (two-tailed) for data sets of two, one-way ANOVA for data sets of three or more with Bonferroni post-hoc tests, or two-way repeated-measures ANOVA with Tukey post-hoc tests for temporal data sets, as appropriate. Significance was set at ^+p < 0.05, ^++p < 0.01, ^+++p < 0.001, ^++++p < 0.0001 compared to sham, and *p < 0.05, **p < 0.01, ***p < 0.001, ****p < 0.0001 compared to disease control.

[4] = tested on: neutrophils; assay: Immunohistochemistry, neutrophil elastase-positive (NE+ve) neutrophils in rat paw; conditions: for NE +ve cells (% max): 2f-induced rat paw oedema, individual animals (Figure 5h); for decrease of NE+ve cells by 2f-LIGRLO-NH2: pre-treatment, 30 min
Description: as §1

| reduction of paw swelling ([3]; 10 mg kg^−1 s.c. 30 min prior to 2f-LIGRLO-NH2 350 µg per paw) [%] | SMILES | number of ED1 +ve cells in rat paw tissue compared to sham [1] | Active mast cells (%) [2] | percentage activated/degranulated mast cells in paw induced by 2f-LIGRLO-NH2 [2] | % swelling ([3]; Time 0 h) [%] | % swelling ([3]; Time 0.5 h) | % swelling ([3]; Time 1 h) | % swelling ([3]; Time 2 h) | % swelling ([3]; Time 4 h) | paw swelling [3] | anti-inflammatory activity in vivo after oral delivery [3] | anti-inflammatory activity in vivo after subcutaneous injection [3] | NE +ve cells (% max) [4] | decrease of NE+ve cells by 2f-LIGRLO-NH2 [4] | reduction of paw swelling ([3]; 10 mg kg^−1 p.o. 2 h prior to 2f-LIGRLO-NH2 350 µg per paw) [%] |
| --- | --- | --- | --- | --- | --- | --- | --- | --- | --- | --- | --- | --- | --- | --- | --- |
| 60 | C[C@@H](C1CCCCC1)n1c(-c2cc3c(cc2Br)OCO3)nc2cc(C(=O)Nc3ccc(C#N)cc3)ccc21 [AZ3451] | no significant difference | 40% and 57.0833% and 59.9284% and 37.5635% and 18.0263% | inhibited | 0 | 48.3188% and 41.0115% and 38.4554% and 0.2044% | 31.4446% and 1.303% and 21.2807% and 5.312% | 1.7017% and 2.985% and 4.564% and -2.962% | 3.1932% and 1.708% and -5.029% and 2.557% | significantly reduced paw swelling | not after oral delivery | active in vivo | 135.782 % max and 55.9949 % max and 85.0488 % max and 57.3155 % max | partially inhibited |  |
|  | CCCc1cc(F)ccc1C(O)c1ncc[nH]1 (stereo not shown) [AZ8838] | no significant difference | 57.5% and 42.6997% and 37.7451% and 42.5373% and 50% | inhibited | 0 | 24.8579% and 43.6327% and 41.4698% and 6.42% | 17.7725% and 33.5029% and 21.2259% and 5.253% | -0.8821% and 11.1837% and 14.1177% and -4.556% | -4.225% and 3.626% and 12.7121% and -4.201% | significantly reduced paw swelling | anti-inflammatory in vivo | anti-inflammatory in vivo | 83.5679 % max and 62.4433 % max and 139.912 % max and 107.932 % max and 66.1651 % max | partially inhibited | 60 |
